Laboratory results from patent US11753363B2, “13-oxidized ingenol derivative and use thereof” (Tianjin Pharmaceutical Da Ren Tang Group Corp., Ltd. …, priority 2017, dated 2023).
In brackets after ≈: the same amount, converted by molar mass.

What was measured:
[1] = test system: BGC-823 (human gastric cancer cells); assay: Inhibition of proliferation of tumor cell lines (MTT), BGC-823; assay type: cell-based; details: BGC-823, 72 h; for IC50: Homo sapiens, read-out: IC50 value of compound for inhibition of proliferation of tumor cell lines, BGC-823
Procedure: (§1) In this example, the inhibitory activity of compounds of the present invention against proliferation of seven human tumor cell lines and mouse B16-F10 melanoma cells was tested in vitro, and the IC50 value (50% inhibitory concentration) of compounds against each tumor cell line was calculated.
(§2) The seven human tumor cell lines are: MCF-7 (human breast cancer cells), LOVO (human colon cancer cells), A549 (human lung cancer cells), BGC-823 (human gastric cancer cells), SMMC-7721 (human liver cancer cells), K562 (human leukemia cells), and HeLa (human cervical cancer cells).
(§3) IC50 values of the compounds for A549, BGC-823, LOVO, MCF-7, SMMC-7721, HeLa, and B16-F10 cells were tested. The above cells were routinely cultured in 1640 nutrient solution containing 10% calf serum, with passage for 1 time every 2 days, and the cells in logarithmic growth phase were taken for experiments. After the A549, BGC-823, LOVO, MCF-7, SMMC-7721, HeLa and B16-F10 cells in logarithmic growth phase were subjected to 0.25% trypsin digestion, they were blown into a single cell suspension, and then the cell concentration was adjusted to about 1×10^5·mL^−1 using RPMI 1640 solution containing 10% calf serum. The cells were seeded in a 96-well culture plate at 100 μL per well, and cultured for 24 hours until the cells were attached. K562 cells were taken and centrifuged and diluted into 2×10^5·mL^−1 single cell suspension with RPMI 1640 solution containing 10% calf serum, and inoculated into a 96-well culture plate at 100 μL per well.
(§4) 100 μL of sample solution with different concentrations to be tested were added to the above 96-well plate, each concentration was added to 4 wells in parallel, and the cell control group was added with an equal volume of RPMI 1640 medium containing 10% calf serum to make a reaction volume of 200 μL. After incubating in an incubator at 37° C., 5% CO2 for 72 h, 10 μL of 5 mg·mL^−1 MTT solution was added to each well, and incubated at 37° C. for 4 h. The supernatant was carefully aspirated, 180 μL of DMSO was added to each well followed by shaking, and the absorbance (OD) value was measured at 570 nm on the microplate reader. The inhibition rate was calculated, and regression equation was established with the logarithmic value of the sample concentration and the inhibition rate (IR) to find the IC50 value of the compound against the cells to be tested. IR (%)=(1−OD value of the experimental group/OD value of the cell control group)×100%

[2] = test system: A549 (human lung cancer cells); assay: Inhibition of proliferation of tumor cell lines (MTT), A549; assay type: cell-based; details: A549, 72 h; for IC50: Homo sapiens, read-out: IC50 value of compound for inhibition of proliferation of tumor cell lines, A549
Procedure: as §1, §2, §3, §4

[3] = test system: MCF-7 (human breast cancer cells); assay: Inhibition of proliferation of tumor cell lines (MTT), MCF-7; assay type: cell-based; details: for IC50: Homo sapiens, MCF7, MCF-7, 72 h, read-out: IC50 value of compound for inhibition of proliferation of tumor cell lines, MCF-7
Procedure: as §1, §2, §3, §4

[4] = test system: mouse B16-F10 melanoma cells; assay: Inhibition of proliferation of tumor cell lines (MTT), B16-F10; assay type: cell-based; details: B16-F10, 72 h; for IC50: Mus musculus, read-out: IC50 value of compound for inhibition of proliferation of tumor cell lines, B16-F10
Procedure: as §1, §3, §4

[5] = test system: K562 (human leukemia cells); assay: Inhibition of proliferation of tumor cell lines (MTT), K562; assay type: cell-based; details: K562, 72 h; for IC50: Homo sapiens, read-out: IC50 value of compound for inhibition of proliferation of tumor cell lines, K562
Procedure: as §1, §2, §3, §4

[6] = test system: release of IL-8 by human keratinocytes (HaCaT); assay: Release of IL-8 by human keratinocytes (HaCaT), IL-8 Elisa; assay type: cell-based; details: 24 h, (Csample−Ccontrol)/Ccontrol×100%
Procedure: This Example investigated the effect of compound on release of IL-8 by human keratinocytes (HaCaT) and calculated the efficiency of each compound in stimulating the release of IL-8 by human keratinocytes (HaCaT).
Hacat cells were cultured in MEM+10% FBS under the conditions of 37° C., 5% CO2, and when the cells reached 80-95% fusion, they were inoculated into a 96-well culture plate (1×10^4 cells/well) at 100 μL/well, and incubated for 18-24 h. The supernatant was discarded and the cells were incubated for 3-6 h in 1% FBS medium. Different concentrations of the sample solution of compound to be tested were added to each well, and the cell control group was added with an equal volume of 1% FBS medium at 10 μL/well, and incubated for 24 h. The supernatant was taken and tested according to the operation sequence of the IL-8 Elisa kit. Calculation formula of Efficiency: Efficiency (%)=(Csample−Ccontrol)/Ccontrol×100%

[7] = test system: neutrophilic granulocytes; assay: Neutrophil oxidative burst (luminol chemiluminescence); assay type: cell-based; details: rat neutrophils, (Csample−Ccontrol)/Ccontrol×100%; for activation at 0.1 µg/mL / activation at 3 µg/mL: Neutrophil, read-out: Efficiency of compounds in stimulating neutrophil oxidative burst; for activation at 0.1 µg/mL: 0.1 μg/mL
Procedure: This example investigated the effect of compound on neutrophil oxidative burst and calculated the efficiency of each compound in stimulating neutrophil oxidative burst.
Blood was taken from the abdominal aorta of rat. The neutrophilic granulocytes were isolated by the operational procedure of the rat peripheral blood neutrophil isolation kit. The neutrophilic granulocytes were re-suspended by Hanks, and were plated in a 96-well white plate at 1×10^5 cells/well, 80 μL/well; 1 mM of Luminol was added at 10 μL/well; 10 μL of the sample was added to each well, and the degree of oxidative burst was evaluated by chemiluminescence. Calculation formula of Efficiency: Efficiency (%)=(Csample−Ccontrol)/Ccontrol×100%

[8] = test system: LOVO (human colon cancer cells); assay: Inhibition of proliferation of tumor cell lines (MTT), LOVO; assay type: cell-based; details: 72 h; for IC50: Homo sapiens, read-out: IC50 value of compound for inhibition of proliferation of tumor cell lines, LOVO
Procedure: as §1, §2, §3, §4

[9] = test system: HeLa (human cervical cancer cells); assay: Inhibition of proliferation of tumor cell lines (MTT), HeLa; assay type: cell-based; details: 72 h; for IC50: Homo sapiens, read-out: IC50 value of compound for inhibition of proliferation of tumor cell lines, HeLA
Procedure: as §1, §2, §3, §4

[10] = test system: SMMC-7721 (human liver cancer cells); assay: Inhibition of proliferation of tumor cell lines (MTT), SMMC-7721; assay type: cell-based; details: SMMC-7721, 72 h; for IC50: Homo sapiens, read-out: IC50 value of compound for inhibition of proliferation of tumor cell lines, SMMC-7721
Procedure: as §1, §2, §3, §4

[11] = test system: B16-F0 mouse melanoma; assay: Antitumor activity in B16-F0 mouse melanoma model; assay type: in vivo; details: female C57BL/6J mice, intradermal B16 tumor, skin administration once per day for 3 days, 20 μL/mouse, tumor weight on day 19
Procedure: This Example investigated the antitumor activity of compounds in B16-F0 mouse melanoma model.
In vitro passage of B16-F0 tumor source was inoculated subcutaneously into female C57BL/6J mice, and passage was carried out after tumor formation. After passage, the subcutaneous tumor tissue of the tumor-bearing mice was taken and ground with 3 times amount of physiological saline to form a tumor cell suspension, and 0.2 mL/mouse of which was inoculated subcutaneously into the axilla of forelimb of mice, which were used as the tumor-source mice. Female C57BL/6J mice were taken and their hair in an area of 4 cm^2 on the neck and back was shaven. After anesthesia with diethyl ether, B16 tumor source was inoculated intradermally at 0.05 mL/mouse. After 3 days of inoculation, the skin was continuously administered for 3 days, once per day, 20 μL/mouse each time, and in the test, a solvent group as a negative control group was included. On the 19th day of the experiment, the experiment was terminated. After the mice were euthanized, the intradermally transplanted tumors were completely separated and excised, and the tumor was weighed to calculate the tumor inhibition rate. Calculation formula of tumor inhibition rate: tumor inhibition rate (%)=(Wmodel group−Wadministration group)/Wmodel group×100%
The tumor growths of the experimental group and the solvent control group were compared to evaluate the antitumor activity of each compound, and the compound with P<0.05 was considered to be effective.

[12] = Homo sapiens, HaCaT, 0.1 μg/mL, read-out: Efficiency of compound in stimulating the release of IL-8 by HaCaT cells

SMILES	IC50 [1] [µg/mL]	IC50 [2] [µg/mL]	IC50 [3] [µg/mL]	IC50 [4] [µg/mL]	IC50 [5] [µg/mL]	activation at 0.1 µg/mL [6, 12] [%]	IC50 [8] [µg/mL]	IC50 [9] [µg/mL]	IC50 [10] [µg/mL]	activation at 3 µg/mL ([7]; 3 μg/mL) [%]	further results
CCCCCCCCCCCC(=O)O[C@@]12C[C@@H](C)[C@]34C=C(C)[C@H](OC(=O)C(C)C(C)C)[C@@]3(O)[C@H](O)C(CO)=C[C@H](C4=O)[C@@H]1C2(C)C (stereo partly drawn) [3-O-(2,3-dimethylbutyryl)-13-O-dodecanoyl-ingenol]	10.4 (≈ 16.1 µM)	11 (≈ 17.1 µM)	9.05 (≈ 14 µM)	17.8 (≈ 27.6 µM)	0.12 (≈ 0.186 µM)	50	7.6 (≈ 11.8 µM)	24.3 (≈ 37.7 µM)	14.5 (≈ 22.5 µM)		activation at 0.1 µg/mL [7]: 71.4%
C/C=C(/C)C(=O)O[C@H]1C(C)=C[C@]23C(=O)[C@@H](C=C(CO)[C@@H](O)[C@]12O)[C@H]1[C@@H](C[C@H]3C)C1(C)C [3-O-angeloyl-ingenol, reference compound]											IC50 value of compound for inhibition of proliferation of tumor cell lines, BGC-823 [1]: 43.5 µg/mL; IC50 value of compound for inhibition of proliferation of tumor cell lines, A549 [2]: 31.2 µg/mL; IC50 value of compound for inhibition of proliferation of tumor cell lines, MCF-7 ([3]; MCF-7, 72 h): 57.4 µg/mL; IC50 value of compound for inhibition of proliferation of tumor cell lines, B16-F10 [4]: 38.1 µg/mL; IC50 value of compound for inhibition of proliferation of tumor cell lines, K562 [5]: 0.0076 µg/mL; Efficiency of compound in stimulating the release of IL-8 by HaCaT cells ([6]; 0.1 μg/mL): 31.9%; Efficiency of compound in stimulating the release of IL-8 by HaCaT cells ([6]; 1 μg/mL): 41.4%; Efficiency of compounds in stimulating neutrophil oxidative burst ([7]; 3 μg/mL): 51.4%; IC50 value of compound for inhibition of proliferation of tumor cell lines, LOVO [8]: 33.4 µg/mL; IC50 value of compound for inhibition of proliferation of tumor cell lines, HeLA [9]: 49.4 µg/mL; IC50 value of compound for inhibition of proliferation of tumor cell lines, SMMC-7721 [10]: 28.2 µg/mL
C/C=C(/C)C(=O)O[C@H]1C(C)=C[C@]23C(=O)[C@@H](C=C(CO)[C@@H](O)[C@]12O)[C@@H]1C(C)(C)[C@]1(OC(C)=O)C[C@H]3C [Compound 8, 3-O-angeloyl-13-O-acetyl-ingenol]	> 100	> 50	> 50		0.0065 (≈ 0.0133 µM)		> 50	> 100	96.6 (≈ 198 µM)		Tumor-inhibition rate [11]: 90.3%; activation at 1 µg/mL ([6]; Homo sapiens, HaCaT, 1 μg/mL, read-out: Efficiency of compound in stimulating the release of IL-8 by HaCaT cells): 38.3%
CCCCCCCCCCCC(=O)O[C@@]12C[C@@H](C)[C@]34C=C(C)[C@H](OC(C)=O)[C@@]3(O)[C@H](O)C(CO)=C[C@H](C4=O)[C@@H]1C2(C)C [Compound 10, 3-O-acetyl-13-O-dodecanoyl-ingenol]	14.7 (≈ 25 µM)	10.7 (≈ 18.2 µM)	16.3 (≈ 27.7 µM)	21.4 (≈ 36.3 µM)	0.22 (≈ 0.374 µM)	79.5	9.41 (≈ 16 µM)	10.9 (≈ 18.5 µM)	13.1 (≈ 22.2 µM)		activation at 0.1 µg/mL [7]: 111%
CCCCCCCCCCCC(=O)O[C@@]12C[C@@H](C)[C@]34C=C(C)[C@H](OC(=O)CCC)[C@@]3(O)[C@H](O)C(CO)=C[C@H](C4=O)[C@@H]1C2(C)C [Compound 11, 3-O-n-butanoyl-13-O-dodecanoyl-ingenol]	13.4 (≈ 21.7 µM)	14.3 (≈ 23.2 µM)	18.5 (≈ 30 µM)	26.2 (≈ 42.5 µM)	0.1 (≈ 0.162 µM)		8.82 (≈ 14.3 µM)	20.3 (≈ 32.9 µM)	19.1 (≈ 31 µM)	33.5	
CCCCCCCCCCCC(=O)O[C@@]12C[C@@H](C)[C@]34C=C(C)[C@H](O)[C@@]3(O)[C@H](O)C(COC(=O)CCC)=C[C@H](C4=O)[C@@H]1C2(C)C [Compound 13, 20-O-n-butanoyl-13-O-dodecanoyl-ingenol]	12.4 (≈ 20.1 µM)	17.2 (≈ 27.9 µM)	18 (≈ 29.2 µM)	30.5 (≈ 49.4 µM)	0.07 (≈ 0.113 µM)	30.3	6.93 (≈ 11.2 µM)	24.2 (≈ 39.2 µM)	12.5 (≈ 20.3 µM)	62.4	
C/C=C(/C)C(=O)OCC1=C[C@@H]2C(=O)[C@]3(C=C(C)[C@H](O)[C@@]3(O)[C@@H]1O)[C@H](C)C[C@]1(OC(=O)CCCCCCCCCCC)[C@H]2C1(C)C [Compound 15b, 20-O-angeloyl-13-O-dodecanoyl-ingenol]	20.6 (≈ 32.8 µM)	10 (≈ 15.9 µM)	23.3 (≈ 37.1 µM)	9.09 (≈ 14.5 µM)	0.001 (≈ 0.00159 µM)		15.2 (≈ 24.2 µM)	10.2 (≈ 16.2 µM)	13.1 (≈ 20.8 µM)	360	
C/C=C(\C)C(=O)O[C@H]1C(C)=C[C@]23C(=O)[C@@H](C=C(CO)[C@@H](O)[C@]12O)[C@@H]1C(C)(C)[C@]1(OC(=O)CCCCCCCCCCC)C[C@H]3C [Compound 20, 3-O-tigloyl-13-O-dodecanoyl-ingenol]	11 (≈ 17.5 µM)	13.1 (≈ 20.8 µM)	6.8 (≈ 10.8 µM)	3.33 (≈ 5.3 µM)	0.81 (≈ 1.29 µM)	109	9.91 (≈ 15.8 µM)	7.45 (≈ 11.8 µM)	18.4 (≈ 29.3 µM)	43.8	
